# Results published in patent US20170209346A1, “SHAPED CELLULOSE BODIES WITH PHYSIOLOGICALLY ACTIVE MINERAL SUBSTANCES DISTRIBUTED THEREIN” (smartpolymer GmbH, priority 2014, published 2017).
# Like-named read-outs stand apart in the source and are kept apart here.
# How the values were obtained:
# [1] = Solubility of mineral compounds in water; details: at 20° C.; chemically pure material used in Example 1
# Description: The mineral compounds contain at least one mineral from the group consisting of sodium, potassium, calcium and magnesium and zinc. […] Water solubility is a prerequisite for the activity of the mineral compounds used, since corresponding anions and cations can thus be released.
# This reported solubility is based on literature data. This list in no way restricts the actual multiplicity of possible mineral compounds having the required properties.
# [2] = literature data, cited from earlier work
compound,measurement,setting,value
"[O]=[Mg] [type 1 magnesium oxide, magnesium oxide]",solubility in water,[1],12.5 mg/L
Hydroxylapatite,solubility in water,[2]; 20° C.,6.57 mg/L
[O]=[Zn] [Zinc oxide],solubility in water,[2]; 29° C.,1.6 mg/L
[O]=[Mg] [Magnesium oxide],solubility in water,[2]; temperature not given,12 mg/L
